Test results published in ChEMBL document CHEMBL4251620, “Biological evaluation of indolizine-chalcone hybrids as new anticancer agents” (Eur J Med Chem, 2018).
The source made the active and inactive calls. No cut-off for these calls is given here.

What was measured:
U-937 [1] = experiment: Cytotoxicity activity against human U937 cells assessed as cell viability at 1 uM after 48 hrs by CCK-8 assay; format: functional; conditions: U-937, 48 h, read-out: Activity
U-937 [2] = experiment: Cytotoxicity activity against human U937 cells assessed as reduction in cell viability at 1 uM after 48 hrs by CCK-8 assay; format: functional, cell-based
U-937 [3] = experiment: Induction of apoptosis in human U937 cells assessed as viable cells at 3 uM after 48 hrs by muse Annexin V/dead cell reagent staining-based flow cytometric analysis (reference value: 97.07%); format: functional; conditions: U-937, 48 h, read-out: Activity
U-937 [4] = experiment: Induction of apoptosis in human U937 cells assessed as necrotic cells at 10 uM after 48 hrs by muse Annexin V/dead cell reagent staining-based flow cytometric analysis (reference value: 0.06%); format: functional
U-937 [5] = experiment: Induction of apoptosis in human U937 cells assessed as late apoptotic cells at 3 uM after 48 hrs by muse Annexin V/dead cell reagent staining-based flow cytometric analysis (reference value: 1%); format: functional
U-937 [6] = experiment: Induction of apoptosis in human U937 cells assessed as increase in caspase-3/7 activity at 3 uM after 6 hrs; format: functional, cell-based
U-937 [7] = experiment: Induction of apoptosis in human U937 cells assessed as early apoptotic cells at 10 uM after 48 hrs by muse Annexin V/dead cell reagent staining-based flow cytometric analysis (reference value: 1.87%); format: functional
U-937 [8] = experiment: Induction of apoptosis in human U937 cells assessed as late apoptotic cells at 10 uM after 48 hrs by muse Annexin V/dead cell reagent staining-based flow cytometric analysis (reference value: 1%); format: functional
U-937 [9] = experiment: Induction of apoptosis in human U937 cells assessed as viable cells at 10 uM after 48 hrs by muse Annexin V/dead cell reagent staining-based flow cytometric analysis (reference value: 97.07%); format: functional; conditions: U-937, 48 h, read-out: Activity
U-937 [10] = experiment: Induction of apoptosis in human U937 cells assessed as early apoptotic cells at 3 uM after 48 hrs by muse Annexin V/dead cell reagent staining-based flow cytometric analysis (reference value: 1.87%); format: functional
U-937 [11] = experiment: Cytotoxicity activity against human U937 cells assessed as reduction in cell viability after 48 hrs by CCK-8 assay; format: functional, cell-based; conditions: U-937, 48 h
U-937 [12] = experiment: Induction of apoptosis in human U937 cells assessed as necrotic cells at 3 uM after 48 hrs by muse Annexin V/dead cell reagent staining-based flow cytometric analysis (reference value: 0.06%); format: functional
JeKo-1 [13] = experiment: Induction of apoptosis in human JeKo1 cells at 10 uM after 48 hrs by muse Annexin V/dead cell reagent staining-based flow cytometric analysis (reference value: 5.21%); format: functional
JeKo-1 [14] = experiment: Cytotoxicity activity against human JeKo1 cells assessed as reduction in cell viability after 48 hrs by CCK-8 assay; format: functional, cell-based; conditions: JeKo-1, 48 h
U-937 [15] = experiment: Induction of apoptosis in human U937 cells at 10 uM after 48 hrs by muse Annexin V/dead cell reagent staining-based flow cytometric analysis (reference value: 2.95%); format: functional
Raji [16] = experiment: Induction of apoptosis in human Raji cells at 10 uM after 48 hrs by muse Annexin V/dead cell reagent staining-based flow cytometric analysis (reference value: 9.58%); format: functional
Raji [17] = experiment: Cytotoxicity against human Raji cells assessed as reduction in cell viability after 48 hrs by CCK-8 assay; format: functional, cell-based

COc1ccccc1/C=C/C(=O)c1cc2cccn2c(C(=O)c2ccccc2)c1C
viability at 1 µM (U-937 [1]): > 80%

Cc1c(C(=O)/C=C/c2cccc(Cl)c2)cc2cccn2c1C(=O)c1ccccc1
Activity (U-937 [2]): Active
viability at 3 µM (U-937 [3]): 15.8%
Activity (U-937 [4]): 0.24%
Activity (U-937 [5]): 54.29%
Activity (U-937 [6]): Active
Activity (U-937 [7]): 5.94%
Activity (U-937 [8]): 85.99%
viability at 10 µM (U-937 [9]): 7.84%
Activity (U-937 [10]): 29.36%
viability at 1 µM (U-937 [1]): < 80%
IC50 (U-937 [11]): 1.28 µM
Activity (U-937 [12]): 0.55%

Cc1c(C(=O)/C=C/c2ccc3ccccc3c2)cc2cccn2c1C(=O)c1ccccc1
viability at 1 µM (U-937 [1]): > 80%

Cc1c(C(=O)/C=C/c2ccc3c(c2)OCO3)cc2cccn2c1C(=O)c1ccccc1
viability at 1 µM (U-937 [1]): > 80%

COc1ccc(/C=C/C(=O)c2cc3cccn3c(C(=O)c3ccccc3)c2C)cc1
viability at 1 µM (U-937 [1]): > 80%

COc1cc(/C=C/C(=O)c2cc3cccn3c(C(=O)c3ccccc3)c2C)cc(OC)c1
Activity (JeKo-1 [13]): 46.27%
IC50 (JeKo-1 [14]): 1.3 µM
viability at 3 µM (U-937 [3]): 14.2%
Activity (U-937 [4]): 0%
Activity (U-937 [5]): 45.57%
Activity (U-937 [15]): 51.26%
Activity (U-937 [6]): Active
Activity (Raji [16]): 33.78%
Activity (U-937 [7]): 8.22%
Activity (U-937 [8]): 88.41%
viability at 10 µM (U-937 [9]): 3.36%
Activity (U-937 [10]): 39.59%
viability at 1 µM (U-937 [1]): < 80%
IC50 (Raji [17]): 1.99 µM
IC50 (U-937 [11]): 1.12 µM
Activity (U-937 [12]): 0.62%

Cc1c(C(=O)/C=C/c2ccc(Br)cc2)cc2cccn2c1C(=O)c1ccccc1
viability at 3 µM (U-937 [3]): 25.7%
Activity (U-937 [4]): 0.59%
Activity (U-937 [5]): 42.16%
Activity (U-937 [6]): Active
Activity (U-937 [7]): 14.54%
Activity (U-937 [8]): 76.56%
viability at 10 µM (U-937 [9]): 8.31%
Activity (U-937 [10]): 31.36%
viability at 1 µM (U-937 [1]): < 80%
IC50 (U-937 [11]): 1.38 µM
Activity (U-937 [12]): 0.77%

COc1ccc(/C=C/C(=O)c2cc3cccn3c(C(=O)c3ccccc3)c2C)cc1OC
viability at 1 µM (U-937 [1]): > 80%

Cc1c(C(=O)/C=C/c2ccccc2)cc2cccn2c1C(=O)c1ccccc1
viability at 1 µM (U-937 [1]): > 80%

COc1cc(/C=C/C(=O)c2cc3cccn3c(C(=O)c3ccco3)c2C)cc(OC)c1
IC50 (U-937 [11]): 7.53 µM

COc1cc(/C=C/C(=O)c2cc3cccn3c(C(=O)c3ccccc3)c2C)cc(OC)c1OC
IC50 (U-937 [11]): 5.95 µM

Cc1ccc(/C=C/C(=O)c2cc3cccn3c(C(=O)c3ccccc3)c2C)cc1
viability at 1 µM (U-937 [1]): > 80%

Cc1c(C(=O)/C=C/c2ccc(Cl)cc2)cc2cccn2c1C(=O)c1ccccc1
Activity (U-937 [2]): Active
viability at 1 µM (U-937 [1]): > 80%

Cc1c(C(=O)/C=C/c2ccc([N+](=O)[O-])cc2)cc2cccn2c1C(=O)c1ccccc1
viability at 3 µM (U-937 [3]): 26.4%
Activity (U-937 [4]): 1.31%
Activity (U-937 [5]): 47.12%
Activity (U-937 [6]): Active
Activity (U-937 [7]): 16.34%
Activity (U-937 [8]): 68.63%
viability at 10 µM (U-937 [9]): 13.7%
Activity (U-937 [10]): 24.87%
viability at 1 µM (U-937 [1]): < 80%
IC50 (U-937 [11]): 1.38 µM
Activity (U-937 [12]): 1.57%

COc1cccc(/C=C/C(=O)c2cc3cccn3c(C(=O)c3ccccc3)c2C)c1
viability at 1 µM (U-937 [1]): > 80%

Cc1c(C(=O)/C=C/c2cccc(F)c2)cc2cccn2c1C(=O)c1ccccc1
Activity (U-937 [2]): Active
viability at 1 µM (U-937 [1]): > 80%

Cc1c(C(=O)/C=C/c2ccc(F)cc2)cc2cccn2c1C(=O)c1ccccc1
Activity (U-937 [2]): Active
viability at 1 µM (U-937 [1]): > 80%

COc1ccc(C(=O)c2c(C)c(C(=O)/C=C/c3cc(OC)cc(OC)c3)cc3cccn23)cc1
IC50 (U-937 [11]): 6.56 µM

Cc1c(C(=O)/C=C/c2ccc(Br)s2)cc2cccn2c1C(=O)c1ccccc1
viability at 1 µM (U-937 [1]): > 80%

COc1cccc2c1C(=O)c1c(O)c3c(c(O)c1C2=O)C[C@@](O)(C(=O)CO)C[C@@H]3O[C@H]1C[C@H](N)[C@H](O)[C@H](C)O1 [DOXORUBICIN]
Activity (JeKo-1 [13]): 87.92%
IC50 (JeKo-1 [14]): 0.18 µM
Activity (U-937 [15]): 74.66%
Activity (Raji [16]): 95.35%
IC50 (Raji [17]): 0.17 µM
IC50 (U-937 [11]): 0.28 µM

Cc1c(C(=O)/C=C/c2ccncc2)cc2cccn2c1C(=O)c1ccccc1
viability at 3 µM (U-937 [3]): 21.4%
Activity (U-937 [4]): 0%
Activity (U-937 [5]): 47.68%
Activity (U-937 [6]): Active
Activity (U-937 [7]): 6.21%
Activity (U-937 [8]): 83.05%
viability at 10 µM (U-937 [9]): 10.7%
Activity (U-937 [10]): 30.03%
viability at 1 µM (U-937 [1]): < 80%
IC50 (U-937 [11]): 1.37 µM
Activity (U-937 [12]): 0.93%

COc1cc(/C=C2\CCc3c(cc4cccn4c3C(=O)c3ccccc3)C2=O)cc(OC)c1
IC50 (U-937 [11]): 9.46 µM

Cc1c(C(=O)/C=C/c2ccc(Br)o2)cc2cccn2c1C(=O)c1ccccc1
viability at 1 µM (U-937 [1]): > 80%
